# Data: US11912794B2, “Modulation of structured polypeptide specificity” (BicycleRD Limited, priority 2011, dated 2024)
# Read-outs that look alike come from different tables or passages of the source. Numbered stars: 1 amine (or outer) side, 2 acyl side, 3 side chain; on linkers, the order of the positions; unused ones are H or OH. Bridge positions count the residues as written; N and C are the ends. Square brackets hold non-standard residues; d marks the D form. Peptide text beside a SMILES is read from it. Phe(4-guanidino) = N=C(N)Nc1ccc(C[C@H](N)C(=O)O)cc1; Pro(trans-4-Ph) = O=C(O)[C@@H]1C[C@@H](c2ccccc2)CN1; Pro(4R-Bn) = O=C(O)[C@@H]1C[C@@H](Cc2ccccc2)CN1; 2Nal = N[C@@H](Cc1ccc2ccccc2c1)C(=O)O; TBMB = c1c(C[*:1])cc(C[*:3])cc1C[*:2]; Hyp = O=C(O)[C@@H]1C[C@@H](O)CN1; Tic = O=C(O)[C@@H]1Cc2ccccc2CN1; Pen = CC(C)(S)[C@H](N)C(=O)O; Aze = O=C(O)[C@@H]1CCN1; Abu = CC[C@H](N)C(=O)O; Aib = CC(C)(N)C(=O)O; βAla = NCCC(=O)O
# Legend:
# [1] = Plasma stability profiling method 1 (35% plasma, MALDI-TOF, qualitative); format: in vitro ADME, rat; conditions: for Observable in rat plasma, for days: 35% rat plasma, 37 deg C, method 1, comparative estimate
# Experimental: Three methods were employed to assess the stability of bicycles (peptides conjugated to molecular scaffolds) in plasma.
# A rapid plasma stability profiling assay was developed that employed mass spectrometric detection (MALDI-TOF, Voyager DE, Applied Biosystems) of the parent mass, until the time when the parent peptide mass was no longer observable. Specifically, 200 uM of peptide was incubated in the presence of 35% rat or human plasma (Sera labs, using citrate as anticoagulant) at 37 deg C., which was supplemented with 1×PBS (derived from a 10×PBS Stock, Sigma). At various time points (i.e. t=0, 3, 24 hrs, henceafter daily up to 10 days), 2 uL of sample was added to 18 uL of 30 mM ammonium bicarbonate in a 1:1 mixture of acetonitrile:H2O. Samples were frozen at −80 deg C. until the time of analysis. For mass spectrometric analysis that determines the approximate detection window of the peptide, the acetonitrile:H2O-diluted sample of a given time point was spotted directly (0.7 uL) onto the MALDI plate. Matrix (alpha-cyanocinnamic acid, Sigma, prepared as a saturated solution in 1:1 acetonitrile:water containing 0.1% trifluoroacetic acid) was layered over the sample (1 uL). At a similar laser intensity setting on the MALDI TOF, the time could then be determined until parent peptide was no longer detectable. It should be noted that this is a qualitative assay serves to detect relative changes in plasma stability.
# human plasma Kallikrein = target: T1, human plasma Kallikrein (Homo sapiens, UniProt P03952); experiment: Functional enzyme inhibition assay, fluorogenic substrate Z-PheArg-AMC; format: biochemical
# T1 construct: purchased Stratech, UK
# Experimental: Peptides were dissolved as the TFA-salts in their powder form, and stock solutions were usually prepared in water. All solutions were centrifuged and filtered ([…] syringe filters) prior absorption measurement at 280 nm. […] For peptides containing non-natural amino acids with suspected chromophoric properties (i.e. NorHar, 4PhenylPro, 3PaI, 4PaI, Tic, 4GuanPhe, 4,4-BPAI, 3,3-DPA, 1NAI, 2NAI, 4BenzylPro, Ind) concentrations were determined by weighing the powder and dissolving the peptide in a defined quantity of water.
# [2] = Ki (nM) (human kallikrein), Ac-06-34-18(TMB)-NH2 series
# T1 sequence (P03952 20-638): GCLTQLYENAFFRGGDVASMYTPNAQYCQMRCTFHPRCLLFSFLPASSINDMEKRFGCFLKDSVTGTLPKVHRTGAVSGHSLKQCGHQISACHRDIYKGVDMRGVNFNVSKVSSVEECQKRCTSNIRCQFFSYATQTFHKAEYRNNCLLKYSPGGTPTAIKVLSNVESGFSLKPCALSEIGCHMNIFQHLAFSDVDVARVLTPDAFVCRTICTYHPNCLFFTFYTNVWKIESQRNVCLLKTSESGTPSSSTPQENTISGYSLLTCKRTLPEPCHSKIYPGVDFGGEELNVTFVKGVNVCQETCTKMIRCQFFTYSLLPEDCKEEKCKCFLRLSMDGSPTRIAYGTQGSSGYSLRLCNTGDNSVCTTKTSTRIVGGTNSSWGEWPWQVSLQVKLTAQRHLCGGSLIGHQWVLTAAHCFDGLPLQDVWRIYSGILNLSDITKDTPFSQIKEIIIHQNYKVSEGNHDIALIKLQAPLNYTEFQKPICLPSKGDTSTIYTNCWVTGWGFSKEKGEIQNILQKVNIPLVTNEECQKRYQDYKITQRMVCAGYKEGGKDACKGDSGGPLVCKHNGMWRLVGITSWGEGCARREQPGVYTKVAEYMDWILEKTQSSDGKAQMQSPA
Structure (SMILES),"Observable in rat plasma, for days [1]",Ki (human plasma Kallikrein; [2]),also measured
CC(=O)N[C@H]1CSCc2cc3cc(c2)CSC[C@H](NC(=O)[C@H](CCCNC(=N)N)NC(=O)[C@H](C)NC(=O)[C@@H]2CCCN2C(=O)[C@H](Cc2ccccc2)NC(=O)[C@H](CO)NC1=O)C(=O)N[C@@H](CC(C)C)C(=O)N[C@@H](Cc1c[nH]cn1)C(=O)N[C@@H](CCC(N)=O)C(=O)N[C@@H](CC(=O)O)C(=O)N[C@@H](CC(C)C)C(=O)N[C@H](C(N)=O)CSC3 [Ac-(06-34-18) FPAR] (Ac-CSFPARCLHQDLC-NH2; linker 1-7-13 via TBMB),2 days,,loss in potency / reduction in affinity compared to wildtype (human plasma Kallikrein; vs Ac-06-34-18(TMB)-NH2): 40 fold
CC(=O)N[C@H]1CSCc2cc3cc(c2)CSC[C@H](NC(=O)[C@H](CCCNC(=N)N)NC(=O)CCNC(=O)[C@@H]2CCCN2C(=O)[C@H](Cc2c[nH]c4ccccc24)NC(=O)[C@H](CO)NC1=O)C(=O)N[C@@H](CC(C)C)C(=O)N[C@@H](Cc1c[nH]cn1)C(=O)N[C@@H](CCC(N)=O)C(=O)N[C@@H](CC(=O)O)C(=O)N[C@@H](CC(C)C)C(=O)N[C@H](C(N)=O)CSC3 [Ac-(06-34-18) β-Ala4] (Ac-CSWP[βAla]RCLHQDLC-NH2; linker 1-7-13 via TBMB),10 days,,"Ki (human plasma Kallikrein; text b279, read-out: affinity to Kallikrein): ~20000 nM"
CC[C@@H]1NC(=O)[C@@H]2CCCN2C(=O)[C@H](Cc2c[nH]c3ccccc23)NC(=O)[C@H](CO)NC(=O)[C@@H](NC(C)=O)CSCc2cc3cc(c2)CSC[C@H](NC(=O)[C@H](CCCNC(=N)N)NC1=O)C(=O)N[C@@H](CC(C)C)C(=O)N[C@@H](Cc1c[nH]cn1)C(=O)N[C@@H](CCC(N)=O)C(=O)N[C@@H](CC(=O)O)C(=O)N[C@@H](CC(C)C)C(=O)N[C@H](C(N)=O)CSC3 [Ac-(06-34-18) Aba4] (Ac-CSWP[Abu]RCLHQDLC-NH2; linker 1-7-13 via TBMB),2 days,0.07 nM,
CC(=O)N[C@H]1CSCc2cc3cc(c2)CSC[C@H](NC(=O)[C@H](CCCNC(=N)N)NC(=O)[C@H](C)NC(=O)[C@@H]2Cc4ccccc4CN2C(=O)[C@H](Cc2c[nH]c4ccccc24)NC(=O)[C@H](CO)NC1=O)C(=O)N[C@@H](CC(C)C)C(=O)N[C@@H](Cc1c[nH]cn1)C(=O)N[C@@H](CCC(N)=O)C(=O)N[C@@H](CC(=O)O)C(=O)N[C@@H](CC(C)C)C(=O)N[C@H](C(N)=O)CSC3 [Ac-(06-34-18) Tic3] (Ac-CSW[Tic]ARCLHQDLC-NH2; linker 1-7-13 via TBMB),2 days,13.5 nM,
CC(=O)N[C@H]1CSCc2cc3cc(c2)CSC[C@H](NC(=O)[C@H](CCCNC(=N)N)NC(=O)[C@H](C)NC(=O)[C@@H]2C[C@@H](O)CN2C(=O)[C@H](Cc2c[nH]c4ccccc24)NC(=O)[C@H](CO)NC1=O)C(=O)N[C@@H](CC(C)C)C(=O)N[C@@H](Cc1c[nH]cn1)C(=O)N[C@@H](CCC(N)=O)C(=O)N[C@@H](CC(=O)O)C(=O)N[C@@H](CC(C)C)C(=O)N[C@H](C(N)=O)CSC3 [Ac-(06-34-18) HyP3] (Ac-CSW[Hyp]ARCLHQDLC-NH2; linker 1-7-13 via TBMB),2 days,0.41 nM,
CC(=O)N[C@H]1CSCc2cc3cc(c2)CSC[C@H](NC(=O)[C@H](CCCNC(=N)N)NC(=O)[C@H](C)NC(=O)[C@@H]2CCN2C(=O)[C@H](Cc2c[nH]c4ccccc24)NC(=O)[C@H](CO)NC1=O)C(=O)N[C@@H](CC(C)C)C(=O)N[C@@H](Cc1c[nH]cn1)C(=O)N[C@@H](CCC(N)=O)C(=O)N[C@@H](CC(=O)O)C(=O)N[C@@H](CC(C)C)C(=O)N[C@H](C(N)=O)CSC3 [Ac-(06-34-18) Aze3] (Ac-CSW[Aze]ARCLHQDLC-NH2; linker 1-7-13 via TBMB),2 days,,affinity surpassing that of wildtype by a factor (human plasma Kallikrein; vs Ac-06-34-18(TMB)-NH2): 3
CC(=O)N[C@H]1CSCc2cc3cc(c2)CSC[C@H](NC(=O)[C@H](CCCNC(=N)N)NC(=O)[C@H](Cc2ccc(O)cc2)NC(=O)[C@@H]2CCCN2C(=O)[C@H](Cc2c[nH]c4ccccc24)NC(=O)[C@H](CO)NC1=O)C(=O)N[C@@H](CC(C)C)C(=O)N[C@@H](Cc1c[nH]cn1)C(=O)N[C@@H](CCC(N)=O)C(=O)N[C@@H](CC(=O)O)C(=O)N[C@@H](CC(C)C)C(=O)N[C@H](C(N)=O)CSC3 [Ac-(06-34-18) WPYR] (Ac-CSWPYRCLHQDLC-NH2; linker 1-7-13 via TBMB),2 days,0.41 nM,
CC(=O)N[C@H]1CSCc2cc3cc(c2)CSC(C)(C)[C@H](NC(=O)[C@H](CCCNC(=N)N)NC(=O)[C@H](C)NC(=O)[C@@H]2CCCN2C(=O)[C@H](Cc2c[nH]c4ccccc24)NC(=O)[C@H](CO)NC1=O)C(=O)N[C@@H](CC(C)C)C(=O)N[C@@H](Cc1c[nH]cn1)C(=O)N[C@@H](CCC(N)=O)C(=O)N[C@@H](CC(=O)O)C(=O)N[C@@H](CC(C)C)C(=O)N[C@H](C(N)=O)CSC3 [Ac-(06-34-18) Cys2ToPen2] (Ac-CSWPAR[Pen]LHQDLC-NH2; linker 1-7-13 via TBMB),5 days,,rat plasma stability ([1]; method 1): slightly enhanced; potency against human plasma Kallikrein compared to parent (human plasma Kallikrein): potency dropped significantly
CC(=O)N[C@H]1CSCc2cc3cc(c2)CSC[C@H](NC(=O)[C@H](CCCNC(=N)N)NC(=O)[C@H](C)NC(=O)[C@@H]2CCCN2C(=O)[C@H](Cc2ccc4ccccc4c2)NC(=O)[C@H](CO)NC1=O)C(=O)N[C@@H](CC(C)C)C(=O)N[C@@H](Cc1c[nH]cn1)C(=O)N[C@@H](CCC(N)=O)C(=O)N[C@@H](CC(=O)O)C(=O)N[C@@H](CC(C)C)C(=O)N[C@H](C(N)=O)CSC3 [Ac-(06-34-18) 2NAL2] (Ac-CS[2Nal]PARCLHQDLC-NH2; linker 1-7-13 via TBMB),2 days,0.5 nM,
CC(=O)N[C@H]1CSCc2cc3cc(c2)CSC[C@H](NC(=O)[C@H](CCCNC(=N)N)NC(=O)[C@H](C)NC(=O)C(C)(C)NC(=O)[C@H](Cc2c[nH]c4ccccc24)NC(=O)[C@H](CO)NC1=O)C(=O)N[C@@H](CC(C)C)C(=O)N[C@@H](Cc1c[nH]cn1)C(=O)N[C@@H](CCC(N)=O)C(=O)N[C@@H](CC(=O)O)C(=O)N[C@@H](CC(C)C)C(=O)N[C@H](C(N)=O)CSC3 [Ac-(06-34-18) Aib3] (Ac-CSW[Aib]ARCLHQDLC-NH2; linker 1-7-13 via TBMB),2 days,1.2 nM,
CC(=O)N[C@H]1CSCc2cc3cc(c2)CSC[C@H](NC(=O)[C@H](CCCNC(=N)N)NC(=O)[C@H](C)NC(=O)[C@@H]2C[C@@H](Cc4ccccc4)CN2C(=O)[C@H](Cc2c[nH]c4ccccc24)NC(=O)[C@H](CO)NC1=O)C(=O)N[C@@H](CC(C)C)C(=O)N[C@@H](Cc1c[nH]cn1)C(=O)N[C@@H](CCC(N)=O)C(=O)N[C@@H](CC(=O)O)C(=O)N[C@@H](CC(C)C)C(=O)N[C@H](C(N)=O)CSC3 [Ac-(06-34-18) 4Benzyl Pro3] (Ac-CSW[Pro(4R-Bn)]ARCLHQDLC-NH2; linker 1-7-13 via TBMB),2 days,191 nM,
CC(=O)N[C@H]1CSCc2cc3cc(c2)CSC[C@H](NC(=O)[C@H](CCCNC(=N)N)NC(=O)[C@H](C)NC(=O)[C@@H]2C[C@@H](c4ccccc4)CN2C(=O)[C@H](Cc2c[nH]c4ccccc24)NC(=O)[C@H](CO)NC1=O)C(=O)N[C@@H](CC(C)C)C(=O)N[C@@H](Cc1c[nH]cn1)C(=O)N[C@@H](CCC(N)=O)C(=O)N[C@@H](CC(=O)O)C(=O)N[C@@H](CC(C)C)C(=O)N[C@H](C(N)=O)CSC3 [Ac-(06-34-18) 4Phenyl Pro3] (Ac-CSW[Pro(trans-4-Ph)]ARCLHQDLC-NH2; linker 1-7-13 via TBMB),2 days,0.58 nM,
CC(=O)N[C@H]1CSCc2cc3cc(c2)CSC[C@H](NC(=O)[C@H](CCCNC(=N)N)NC(=O)C(C)(C)NC(=O)[C@@H]2CCCN2C(=O)[C@H](Cc2c[nH]c4ccccc24)NC(=O)[C@H](CO)NC1=O)C(=O)N[C@@H](CC(C)C)C(=O)N[C@@H](Cc1c[nH]cn1)C(=O)N[C@@H](CCC(N)=O)C(=O)N[C@@H](CC(=O)O)C(=O)N[C@@H](CC(C)C)C(=O)N[C@H](C(N)=O)CSC3 [Ac-(06-34-18) Aib4] (Ac-CSWP[Aib]RCLHQDLC-NH2; linker 1-7-13 via TBMB),7 days,289 nM,
CC(=O)N[C@H]1CSCc2cc3cc(c2)CSC[C@H](NC(=O)[C@H](Cc2ccc(NC(=N)N)cc2)NC(=O)[C@H](C)NC(=O)[C@@H]2CCN2C(=O)[C@H](Cc2c[nH]c4ccccc24)NC(=O)[C@H](CO)NC1=O)C(=O)N[C@@H](CC(C)C)C(=O)N[C@@H](Cc1c[nH]cn1)C(=O)N[C@@H](CCC(N)=O)C(=O)N[C@@H](CC(=O)O)C(=O)N[C@@H](CC(C)C)C(=O)N[C@H](C(N)=O)CSC3 [Ac-(06-34-18) Aze3 4GuanPhe5] (Ac-CSW[Aze]A[Phe(4-guanidino)]CLHQDLC-NH2; linker 1-7-13 via TBMB),>10 days,0.17 nM,
